This is an account of results in patent publication US8754073B2, “Substituted piperazino-dihydrothienopyrimidines” (Boehringer Ingelheim International GmbH, priority 2007, dated 2014).

Where a name gives a salt, the structure may show the parent alone.

Sequence of PDE4B (Q07343 whole entry, species assumed): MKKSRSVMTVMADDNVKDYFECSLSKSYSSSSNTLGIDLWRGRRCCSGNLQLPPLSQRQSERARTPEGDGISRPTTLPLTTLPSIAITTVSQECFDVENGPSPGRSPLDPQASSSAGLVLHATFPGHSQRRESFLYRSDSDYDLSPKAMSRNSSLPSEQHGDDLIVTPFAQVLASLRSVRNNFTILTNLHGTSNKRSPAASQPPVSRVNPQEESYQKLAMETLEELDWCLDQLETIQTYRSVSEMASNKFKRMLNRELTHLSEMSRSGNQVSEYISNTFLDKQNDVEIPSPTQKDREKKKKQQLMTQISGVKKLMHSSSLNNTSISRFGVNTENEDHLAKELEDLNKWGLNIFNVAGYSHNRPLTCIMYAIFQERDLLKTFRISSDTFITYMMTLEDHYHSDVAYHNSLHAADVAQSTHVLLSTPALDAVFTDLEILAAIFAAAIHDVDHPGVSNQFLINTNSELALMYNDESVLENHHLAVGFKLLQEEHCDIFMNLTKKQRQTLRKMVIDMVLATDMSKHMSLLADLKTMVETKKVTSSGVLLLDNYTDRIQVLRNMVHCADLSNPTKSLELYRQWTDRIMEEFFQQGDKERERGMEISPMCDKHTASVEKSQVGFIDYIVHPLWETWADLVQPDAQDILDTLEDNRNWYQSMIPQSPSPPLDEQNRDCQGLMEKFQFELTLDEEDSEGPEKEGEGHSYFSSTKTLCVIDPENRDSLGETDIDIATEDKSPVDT

The first experiment deals with PDE4B (Homo sapiens, UniProt Q07343). As to the kind of experiment: Scintillation Proximity Assay (SPA) of PDE4B enzyme activity ([H3]-cAMP cleavage). The format is biochemical. Particulars: test substance 1 μM; one-hour incubation of [H3]-cAMP with PDE4B enzyme at 30° C. On the procedure:
The inhibitions (in %) at 1 μM of the individual Example substances are given in the following Table of Examples and were determined as follows:
The Scintillation Proximity Assay (SPA) (GE Healthcare, No. TRKQ7090) was carried out by using the different affinities of cyclic 3′-5′-adenosinemonophosphate (cAMP, low affinity) and linear 5′-adenosinemonophosphate (AMP, high affinity) for yttrium silicate scintillator beads. The cAMP specific phosphodiesterase (PDE) PDE4B cleaves the 3′-phosphoester bond of tritium-labelled [H3]-cAMP to form [H3]-5′-AMP. This [H3]-AMP accumulates on the scintillator beads because of its higher affinity for them and causes scintillation events (flashes of light) which are measured in a Wallac Microbeta Scintillation Counter.
The experiment starts with a one-hour incubation of [H3]-cAMP with the PDE4B enzyme in assay buffer at 30° C., in each case once with the Example substance to be tested (in a concentration of 1 μM) and once without the Example substance to be tested.
After this incubation, the reaction is stopped by the addition of the beads. The beads have an opportunity to settle in the next 45 minutes, then the measurement is carried out in the Scintillation Counter. If the substance is capable of inhibiting the enzymatic activity of the PDE4B, less [H3]-AMP is produced during the incubation phase and fewer scintillation events can be measured.
For orientation: Scintillation proximity formats need no separation of bound from free tracer.
Usually inhibition stands for the drop in the measured response relative to a control, in per cent. Read a high inhibition as strong suppression. For `COC(=O)c1ccc(C2CCN(c3nc4c(c(NC5(CO)CC5)n3)[S+]([O-])CC4)CC2)cc1` (stereo not shown) [Example 103], the inhibition at 1 µM worked out at 95%.
The same measure, in the same setting: the figure for `[O-][S+]1CCc2nc(N3CCC(c4cc5ccccc5o4)CC3)nc(NC3(CO)CC3)c21` (stereo not shown) [Example 110] is 97%; for `[O-][S+]1CCc2nc(N3CCC(c4ccc(Cl)cc4)CC3)nc(NC3CCOCC3)c21` (stereo not shown) [Example 6, {2-[4-(4-chlorophenyl)-piperidin-1-yl]-5-oxo-6,7-dihydro-5H-5λ^4-thieno[3,2-d]pyrimidin-4-yl}-(tetrahydropyran-4-yl)-amine] it is 94%.
Still for that read-out and setting: the value for `[O-][S+]1CCc2nc(N3CCC(c4ccc(Br)cc4)CC3)nc(NC3(CO)CC3)c21` (stereo not shown) [Example 92, (1-{2-[4-(4-Bromophenyl)-Piperidin-1-Yl]-5-Oxo-6,7-Dihydro-5H-5λ^4-Thieno[3,2-d]Pyrimidin-4-Ylamino}-Cyclopropyl)-Methanol] was 94%; that for `[O-][S+]1CCc2nc(N3CCC(c4ccccc4F)CC3)nc(NC3(CO)CC3)c21` (stereo not shown) [Example 87] was 92%; that for `N#Cc1ccc(C2CCN(c3nc4c(c(Nc5cccc(F)c5)n3)[S+]([O-])CC4)CC2)cc1` (stereo not shown) [Example 79] was 96%.
The same measure, in the same setting: the value for `CC(C)[C@H](CO)Nc1nc(N2CCC(c3cc(-c4ccco4)n[nH]3)CC2)nc2c1[S+]([O-])CC2` (stereo partly drawn) [Example 161, (R)-2-{2-[4-(5-Furan-2-Yl-2H-Pyrazol-3-Yl)-Piperidin-1-Yl]-5-Oxo-6,7-Dihydro-5H-5λ^4-Thieno[3,2-d]Pyrimidin-4-Ylamino}-3-Methylbutan-1-Ol Trifluoroacetate] was 94%; that for `[O-][S+]1CCc2nc(N3CCC(c4nnc5ccccn45)CC3)nc(NC3CCOCC3)c21` (stereo not shown) [Example 124] was 89%; that for `CC(C)[C@H](CO)Nc1nc(N2CCC(c3nc(-c4ccncc4)no3)CC2)nc2c1[S+]([O-])CC2` (stereo partly drawn) [Example 163, (R)-3-Methyl-2-{5-Oxo-2-[4-(3-Pyridin-4-Yl-[1,2,4]Oxadiazol-5-Yl)-Piperidin-1-Yl]-6,7-Dihydro-5H-5λ^4-Thieno[3,2-d]Pyrimidin-4-Ylamino}-Butan-1-Ol Trifluoroacetate] was 92%.
In turn, `[O-][S+]1CCc2nc(N3CCC(c4cccc(O)c4)CC3)nc(NC3CCOCC3)c21` (stereo not shown) [Example 61] returned an inhibition at 1 µM of 95%.
On the same count and under the same terms, the figure for `[O-][S+]1CCc2nc(N3CCC(c4cccc(O)c4)CC3)nc(NC3(CO)CC3)c21` (stereo not shown) [Example 32] is 96%; for `[O-][S+]1CCc2nc(N3CCC(c4nc5cc(Cl)ccc5s4)CC3)nc(NC3CCOCC3)c21` (stereo not shown) [Example 118] it is 96%; for `COc1ccc(C2CCN(c3nc4c(c(Nc5cccc(F)c5)n3)[S+]([O-])CC4)CC2)cc1` (stereo not shown) [Example 133] it is 95%.
Same read-out and setting: the value for `[O-][S+]1CCc2nc(N3CCC(c4nc(-c5cccnc5)no4)CC3)nc(NC3CCOCC3)c21` (stereo not shown) [Example 131] was 94%; that for `N#Cc1ccc(C2CCN(c3nc4c(c(NC5(CO)CC5)n3)[S+]([O-])CC4)CC2)cc1` (stereo not shown) [Example 35] was 95%; that for `CN1C[C@@H](Nc2nc(N3CCC(c4c[nH]cn4)CC3)nc3c2[S+]([O-])CC3)CCC1=O` (stereo partly shown) [Example 42] was 95%.
On the same count and under the same terms, the value for `CC(C)[C@H](CO)Nc1nc(N2CCC3(CC2)OC(=O)Nc2ccccc23)nc2c1[S+]([O-])CC2` (stereo partly shown) [Example 21] was 83%.

The same experiment, now with this note: test substance 1 μM; one-hour incubation with [H3]-cAMP at 30° C.
In the case of `[O-][S+]1CCc2nc(N3CCC(Oc4ccc(F)cc4)CC3)nc(NC3(CO)CC3)c21` (stereo not shown) [Example 167], 1 µM produced 91% inhibition.
Still for that read-out and setting: the value for `CN1C[C@@H](Nc2nc(N3CCC(c4nc(-c5ccncc5)no4)CC3)nc3c2[S+]([O-])CC3)CCC1=O` (stereo partly shown) [Example 188] was 97%; that for `CN(C(=O)c1cccc(C2CCN(c3nc4c(c(NC5CCOCC5)n3)[S+]([O-])CC4)CC2)c1)C1CC1` (stereo not shown) [Example 249, N-cyclopropyl-N-methyl-3-{1-[5-oxo-4-(tetrahydropyran-4-ylamino)-6,7-dihydro-5H-5λ^4-thieno[3,2-d]pyrimidin-2-yl]-piperidin-4-yl}-benzamide] was 93%.
The same measure, in the same setting: the figure for `Cc1nn(C)c(C)c1CNC(=O)c1ccc(C2CCN(c3nc4c(c(NC5CCOCC5)n3)[S+]([O-])CC4)CC2)cc1` (stereo not shown) [Example 230] is 81%; for `O=C(C1CC1)N1CCc2ccc(OC3CCN(c4nc5c(c(NC6CCOCC6)n4)[S+]([O-])CC5)CC3)cc2CC1` (stereo not shown) [Example 214, cyclopropyl-(7-{1-[5-oxo-4-(tetrahydropyran-4-ylamino)-6,7-dihydro-5H-5λ^4-thieno[3,2-d]pyrimidin-2-yl]-piperidin-4-yloxy}-1,2,4,5-tetrahydrobenzo[d]azepin-3-yl)-methanone] it is 94%.
Same read-out and setting: the figure for `CN1C[C@@H](Nc2nc(N3CCC(c4cc(-c5ccco5)n[nH]4)CC3)nc3c2[S+]([O-])CC3)CCC1=O` (stereo partly shown) [Example 190] is 97%; for `[O-][S+]1CCc2nc(N3CCC(Oc4ccc(F)c(F)c4)CC3)nc(NC3CCOCC3)c21` (stereo not shown) [Example 175] it is 89%.
For the compound `[O-][S+]1CCc2nc(N3CCC(OCc4ccccc4)(c4ccc(Cl)cc4)CC3)nc(NC3(CO)CC3)c21` (stereo not shown) [Example 320], the inhibition at 1 µM came out at 92%.
Same read-out and setting: the figure for `CC(C)c1ccc(OC2CCN(c3nc4c(c(N[C@H]5CCC(=O)N(C)C5)n3)[S+]([O-])CC4)CC2)cc1` (stereo partly shown) [Example 267] is 78%; for `Cc1nn(C)cc1CNC(=O)c1cccc(C2CCN(c3nc4c(c(NC5CCOCC5)n3)[S+]([O-])CC4)CC2)c1` (stereo not shown) [Example 259] it is 92%; for `CN1CCc2ccc(OC3CCN(c4nc5c(c(NC6CCOCC6)n4)[S+]([O-])CC5)CC3)cc2CC1` (stereo not shown) [Example 186, (2-[4-(3-Methyl-2,3,4,5-Tetrahydro-1H-Benzo[d]Azepin-7-Yloxy)-Piperidin-1-Yl]-5-Oxo-6,7-Dihydro-5H-5λ^4-Thieno[3,2-d]Pyrimidin-4-Yl)-(Tetrahydropyran-4-Yl)-Amine] it is 96%.
Same read-out and setting: the value for `Cc1nc(C2CCN(c3nc4c(c(NC5(CO)CC5)n3)[S+]([O-])CC4)CC2)oc1-c1ccc(Cl)cc1` (stereo not shown) [Example 283, [1-(2-{4-[5-(4-chlorophenyl)-4-methyloxazol-2-yl]-piperidin-1-yl}-5-oxo-6,7-dihydro-5H-5λ^4-thieno[3,2-d]pyrimidin-4-ylamino)-cyclopropyl]-methanol] was 89%; that for `O=C(O)c1ccc(OC2CCN(c3nc4c(c(NC5CCOCC5)n3)[S+]([O-])CC4)CC2)cc1` (stereo not shown) [Example 184, 4-{1-[5-Oxo-4-(Tetrahydropyran-4-Ylamino)-6,7-Dihydro-5H-5λ^4-Thieno[3,2-d]Pyrimidin-2-Yl]-Piperidin-4-Yloxy}-Benzoic Acid] was 92%; that for `COC(=O)c1cccc(OC2CCN(c3nc4c(c(NC5CCOCC5)n3)[S+]([O-])CC4)CC2)c1` (stereo not shown) [Example 177] was 93%.
Same read-out and setting: the value for `Cn1nc(-c2ccco2)cc1C1CCN(c2nc3c(c(NC4CCOCC4)n2)[S+]([O-])CC3)CC1` (stereo not shown) [Example 200, {2-[4-(5-furan-2-yl-2-methyl-2H-pyrazol-3-yl)-piperidin-1-yl]-5-oxo-6,7-dihydro-5H-5λ^4-thieno[3,2-d]pyrimidin-4-yl}-(tetrahydropyran-4-yl)-amine] was 97%; that for `[O-][S+]1CCc2nc(N3CCC(c4nc5ccncc5[nH]4)CC3)nc(NC3CCOCC3)c21` (stereo not shown) [Example 213] was 88%; that for `[O-][S+]1CCc2nc(N3CCC(c4nc(-c5ccccc5)c(-c5ccccc5)o4)CC3)nc(NC3CCOCC3)c21` (stereo not shown) [Example 279] was 95%.
As for `CN1C[C@@H](Nc2nc(N3CCC(CNS(C)(=O)=O)(c4ccccc4)CC3)nc3c2[S+]([O-])CC3)CCC1=O` (stereo partly shown) [Example 253, N-{1-[4-(1-Methyl-6-Oxo-Piperidin-3-Ylamino)-5-Oxo-6,7-Dihydro-5H-5λ^4-Thieno[3,2-d]Pyrimidin-2-Yl]-4-Phenylpiperidin-4-Ylmethyl}-Methanesulphonamide], 1 µM produced 92% inhibition.
Same read-out and setting: the figure for `CN1C[C@@H](Nc2nc(N3CCC(CN(C)S(C)(=O)=O)(c4ccccc4)CC3)nc3c2[S+]([O-])CC3)CCC1=O` (stereo partly shown) [Example 270, N-methyl-N-{1-[4-(1-methyl-6-oxo-piperidin-3-ylamino)-5-oxo-6,7-dihydro-5H-5λ^4-thieno[3,2-d]pyrimidin-2-yl]-4-phenylpiperidin-4-ylmethyl}-methanesulphonamide] is 95%; for `CN(C(=O)c1ccc(OC2CCN(c3nc4c(c(NC5CCOCC5)n3)[S+]([O-])CC4)CC2)cc1)C1CC1` (stereo not shown) [Example 242, N-Cyclopropyl-N-Methyl-4-{1-[5-Oxo-4-(Tetrahydropyran-4-Ylamino)-6,7-Dihydro-5H-5λ^4-Thieno[3,2-d]Pyrimidin-2-Yl]-Piperidin-4-Yloxy}-Benzamide] it is 94%.
On the same count and under the same terms, the value for `[O-][S+]1CCc2nc(N3CCC(c4nc5ncncc5[nH]4)CC3)nc(NC3CCOCC3)c21` (stereo not shown) [Example 208] was 82%; that for `COC1CCN(c2nc3c(c(NC4CCOCC4)n2)[S+]([O-])CC3)CC1` (stereo not shown) [Example 170] was 77%.
For the compound `CN1CCC(N(C)C(=O)c2ccc(OC3CCN(c4nc5c(c(NC6CCOCC6)n4)[S+]([O-])CC5)CC3)cc2)CC1` (stereo not shown) [Example 241], the inhibition at 1 µM was determined as 93%.
